Experiments:
Type in all cases: in vivo, Sprague-Dawley rats
[1] = Serum glucose of streptozotosin-induced diabetic rats; conditions: DM+C3G group
Description: (§1) Thirty-six 12-wk-old male Sprague-Dawley rats were treated under a protocol approved by the Institutional Animal Care and Use Committee (CUMC-2010-0137-02) and handled according to NIH guidelines. Rats were divided equally into three groups (n=12 in each): control, diabetes (DM), and diabetes with C3G concentration materials treatment (DM+C3G). All rats in the DM and DM+C3G groups received a single intraperitoneal injection of streptozotosin (50 mg/kg). Blood glucose and body weight were monitored weekly and significant diabetes (serum glucose >250 mg/dl) was confirmed in all rats within 1 wk. The diabetic serum level was maintained throughout the experiment. Four weeks after the induction of diabetes, rats in the DM+C3G group were treated with daily oral C3G (10 mg/kg) dissolved in water for 8 weeks. After the 12 weeks, intracavernosal pressure measurement (ICP) was performed, and after ICP measurement, the skin-denuded middle part of the penile shafts was cut and fixed overnight in 10% formalin, washed, and stored in 70% alcohol at 4° C. until processed for paraffin-embedded tissue sectioning (5 μm). Tissue was stored at −80° C. until processing.

[2] = test system: rat model of diabetic erectile dysfunction; test: Intracavernosal pressure measurement on electrical stimulation of the cavernosal nerve; conditions: diabetic rats, daily oral C3G 10 mg/kg for 8 weeks
Description: as §1
Rats were anaesthetized with an intraperitoneal injection of 0.2 mL tiletamine (Zoletil®). […] Both mean arterial pressure (MAP) and ICP were continuously monitored during electrical stimulation. […]

[3] = test system: smooth muscle and collagen in corporal tissue; test: Masson's trichrome staining of cavernosal tissue
Description: as §1
After ICP, the skin denuded middle part of the penile shafts were fixed overnight in 10% formalin, washed, and stored in 70% alcohol at 4° C. until processed for paraffin-embedded tissue sectioning (5 μm). The cavernosal tissue was obtained for the Masson's trichrome staining. After staining, the color distribution of the muscle tissue was approximated by using the Adobe Photoshop CS 8.0. After the entire color distribution of the image was calculated, we selected the muscle tissue distribution, expressed as the color red. There were somewhat standard deviations in our calculation because of color overlays and ambiguity of the color spectrum of the muscle tissues.

[4] = test system: apoptosis in corporal tissue; test: TUNEL assay for apoptosis; conditions: diabetic rats, daily oral C3G 10 mg/kg for 8 weeks; DM 39.6±4.6, control 15.3±3.0
Description: as §1, with “After the 12 weeks, intracavernosal pressure measurement (ICP) was performed, and after ICP measurement, the skin-denuded middle part of the penile shafts was cut and fixed overnight in 10% formalin, washed, and stored in 70% alcohol at 4° C. until processed for paraffin-embedded tissue sectioning (5 μm). Tissue was stored at −80° C. until processing.” left out
To assess apoptosis in the corpora tissues, the terminal deoxynucleotidyl transferase mediated dUTP nick end labeling (TUNEL) assay was performed using Apop Tag In Situ Apoptosis Detection Kits (Millipore Co., MA, US). […] The number of cells positive for the TUNEL assay was counted and the difference among the groups was assessed. For the count of cells positive for the TUNEL assay, 5 sites were selected randomly from a slide of each group, and the number of cells positive for the TUNEL assay was counted as the average of 5 sites under a light microscope at 400× magnification.

eNOS = eNOS protein expression, Western blot of corporal tissue; conditions: C3G treatment group versus DM group, corrected against actin
Description: as §1, with “After the 12 weeks, intracavernosal pressure measurement (ICP) was performed, and after ICP measurement, the skin-denuded middle part of the penile shafts was cut and fixed overnight in 10% formalin, washed, and stored in 70% alcohol at 4° C. until processed for paraffin-embedded tissue sectioning (5 μm). Tissue was stored at −80° C. until processing.” left out
(§2) The homogenized buffer solution was placed on ice for 15 min and centrifuged at 4° C. for 13,000 rpm for 15 minutes. […] 30 μg of the quantitative protein was denatured at 95° C. for 5 min and electrophoresis was performed on a 12% discontinuous sodium dodecylsulfate-polyacrylamide gel (SDS-PAGE). […] Chemiluminescence was detected using enhanced chemiluminescence Western blotting detection reagents and densitometric assessment of the bands on the autoradiogram was performed using Bio1D software (version 97; Vilber Lourmat, France). […]

nNOS = nNOS protein expression, Western blot of corporal tissue; conditions: C3G treatment group versus DM group, corrected against actin
Description: as §1, with “After the 12 weeks, intracavernosal pressure measurement (ICP) was performed, and after ICP measurement, the skin-denuded middle part of the penile shafts was cut and fixed overnight in 10% formalin, washed, and stored in 70% alcohol at 4° C. until processed for paraffin-embedded tissue sectioning (5 μm). Tissue was stored at −80° C. until processing.” left out
as §2

SOD = SOD protein expression, Western blot of corporal tissue; conditions: DM group treated with C3G
Description: as §1, with “After the 12 weeks, intracavernosal pressure measurement (ICP) was performed, and after ICP measurement, the skin-denuded middle part of the penile shafts was cut and fixed overnight in 10% formalin, washed, and stored in 70% alcohol at 4° C. until processed for paraffin-embedded tissue sectioning (5 μm). Tissue was stored at −80° C. until processing.” left out
The homogenized buffer solution was placed on ice for 15 min and centrifuged at 4° C. for 13,000 rpm for 15 minutes. […] 30 μg of the quantitative protein was denatured at 95° C. for 5 min and electrophoresis was performed on a 12% discontinuous sodium dodecylsulfate-polyacrylamide gel (SDS-PAGE). […] Chemiluminescence was detected using enhanced chemiluminescence Western blotting detection reagents and densitometric assessment of the bands on the autoradiogram was performed using Bio1D software (version 97; Vilber Lourmat, France).

[5] = test system: 8-OHdG in corpora tissues; test: Measurement of 8-OHdG (oxidative stress) by ELISA; conditions: diabetic rats, daily oral C3G 10 mg/kg for 8 weeks; DM 0.917±0.247, normal 0.140±0.13
Description: as §1, with “After the 12 weeks, intracavernosal pressure measurement (ICP) was performed, and after ICP measurement, the skin-denuded middle part of the penile shafts was cut and fixed overnight in 10% formalin, washed, and stored in 70% alcohol at 4° C. until processed for paraffin-embedded tissue sectioning (5 μm). Tissue was stored at −80° C. until processing.” left out
Oxidative stress in corpora tissues was evaluated by quantifying the levels of 8-hydroxy-2-deoxyguanosine (8-OHdG) as oxidatively modified DNA. […] Levels of 8-OHdG were measured with a DNA oxidation kit (Highly Sensitive 8-OHdG Check ELISA; Japan Institute for the Control of Aging, Fukuroi, Japan) according to the manufacturer's protocol. […] After the final color was developed with the addition of 3,3′,5,5′-tetramethylbenzidine, absorbance was measured at 450 nm. Tissue sample concentration was calculated from a standard curve and was corrected for DNA concentration.

[6] = C3G treatment group versus DM group

## OC[C@H]1O[C@@H](Oc2cc3c(O)cc(O)cc3[o+]c2-c2ccc(O)c(O)c2)[C@H](O)[C@@H](O)[C@@H]1O [C3G, Cyanidin-3-O-β-d-glucopyranoside]
[1]; 4 wk after diabetes induction (start of daily oral C3G 10 mg/kg)
  Serum glucose: 462 ± 90 mg/dL
[1]; 8 wk, daily oral C3G 10 mg/kg from week 4
  Serum glucose: 448 ± 143 mg/dL
[1]; 12 wk, daily oral C3G 10 mg/kg for 8 weeks
  Serum glucose: 469 ± 163 mg/dL
[1]; Pre-DM induction (before C3G treatment)
  Serum glucose: 141 ± 13 mg/dL
[2]; DM group 0.32 ± 0.06, control 0.77 ± 0.05
  ICP/MAP ratio: 0.55 ± 0.11
[2]; cavernosal nerve stimulation, DM group 35.4 ± 4.5, control 83.3 ± 1.9
  Peak ICP: 58.0 ± 4.6
[3]; [6]
  collagen content of corpora tissues: collagen content decreased
  smooth muscle content of corpora tissues: smooth muscle content increased
[3]; diabetic rats, daily oral C3G 10 mg/kg for 8 weeks, DM 10.6±4.6, control 27.3±3.0
  muscle/collagen ratio: 21.8±1.7
[4]
  mean apoptotic index ± standard deviation (TUNEL): 21.3±1.7
eNOS
  eNOS protein level (western blot, densitogram): levels increased
nNOS
  nNOS protein level (western blot, densitogram): levels increased
SOD
  SOD expression (western blot): expressed more in the DM group treated with C3G than in the control group
[5]
  8-OHdG in the corpora tissue by ELISA: 0.626±0.423

Reference: US9040106B2, “Pharmaceutical composition for preventing or treating diabetic erectile dysfunction comprising C3G or extract of mulberry containing C3G” (CATHOLIC UNIVERSITY INDUSTRY-ACADEMIC COOPERATION FOUNDATION, priority 2011, dated 2015)
